The record followed here is patent publication US20120190691A1, “PHARMACEUTICAL COMPOSITIONS FOR TREATMENT OF RESPIRATORY AND INFLAMMATORY DISEASES” (priority 2010, published 2012).

The experiment relates to ovalbumin-induced bronchospasm. Description: Ovalbumin-induced bronchospasm (modified Konzett-Rössler) in sensitized anaesthetized guinea pigs. It is filed as in vivo. The method, then: Male and female Dunkin-Harley guinea pigs were obtained from the Experimental Animal Breeding Centre of Harlan Winkelmann (Germany). After fasting overnight, but with free access to drinking water, animals with body weight of 400-500 g were used.
Bronchospasm was recorded with a modified version of the method of Konzett-Röβler (described by Walland et al, in “Compensation of muscarinic bronchial effects of talsaclidine by concomitant sympathetic activation in guinea pigs”, European Journal of Pharmacology, Volume 330, Issue 2-3, 9 Jul. 1997, Pages 213-219). The animals were ventilated by means of a piston pump (starling ventilator, Hugo Sachs Elektronik, Germany) at a stroke volume of 1 ml/100 g body weight and at a rate of 60 strokes per min. The tubing which connected the tracheal cannula with the ventilator was provided with a branch leading to the bronchospasm transducer (bronchospasm transducer 7020, Ugo Basile, Italy). The air flow measurement is based on the hot wire anemometer principle. Any air flow will reduce the temperature of the wire, thereby decreasing its resistance in proportion of the flow. As the wire element is one arm of a Weaststone bridge, variation in resistance generate a proportional voltage output which feeds the amplifier/recording system (Notocord-hem, Notocord, France). Blood pressure and heart rate are monitored from a carotid artery in order to check the anesthesia and the variability of the preparation.
Guinea pigs were sensitized on 2 consecutive days with 20 μg ovalbumin (OVA) (Sigma, St. Louis, Mo.) and 20 mg Al(OH)3 in 0.5 ml saline, which were administered subcutaneously. Experiments, which included OVA challenge, were conducted 2 weeks after sensitization. Approximately 1 hour before OVA challenge, the animals were anaesthetized with an intraperitoneal injection of 50 mg/kg pentobarbital. Anesthesia was prolonged by intravenous infusion of pentobarbital (15 mg/kg/h) via the jugular vein. A tracheal cannula was introduced after tracheotomy for artificial ventilation. The internal jugular vein was cannulated for drug injection while the left carotid artery was cannulated for measuring blood pressure and heart rate. 30 minutes after the beginning of air flow and blood pressure measurements, bronchoconstriction is triggered by an OVA challenge given at a fixed dose of 50 μg/kg inhaled.
The test compounds or combinations of compounds were administered orally 2 hours before the OVA challenge.
The control group comprises 12 guinea-pigs, test compounds comprise 2 to 4 guinea-pigs.
Bronchoprotection of the drug (i.e. inhibition of OVA broncho-constriction) is expressed as a percentage of inhibition of the increase in overflow induced by OVA in the control animals.

[1] abbreviates: Desloratidine 2.0 mg/kg p.o. alone (CRTH2 antagonist (1) 0.0).
Setting [2] is: Fexofenadine 0.5 mg/kg p.o. alone (CRTH2 antagonist (1) 0.0).
Where [3] appears, read: Pyrilamine 2.0 mg/kg p.o. alone (CRTH2 antagonist (1) 0.0).

As for `CN(C)c1nc(Cc2ccc(NC(=O)c3ccc(C(F)(F)F)cc3)cc2)nc(N(C)C)c1CC(=O)O` [CRTH2 antagonist (1), [4,6-bis(dimethylamino)-2-(4-(4-(trifluoromethyl)benzamido)benzyl)pyrimidin-5-yl]-acetic acid], the overflow runs as follows: (CRTH2 antagonist (1) 0.01 mg/kg p.o. alone, 2 hours before OVA challenge) 63 mL; (CRTH2 antagonist (1) 0.03 mg/kg p.o. alone, 2 hours before OVA challenge) 65 mL; (CRTH2 antagonist (1) 0.10 mg/kg p.o. alone, 2 hours before OVA challenge) 69 mL; (CRTH2 antagonist (1) 0.30 mg/kg p.o. alone, 2 hours before OVA challenge) 60 mL; (CRTH2 antagonist (1) 1.00 mg/kg p.o. alone, 2 hours before OVA challenge) 65 mL; (CRTH2 antagonist (1) 3.00 mg/kg p.o. alone, 2 hours before OVA challenge) 61 mL. Also, where the note is “CRTH2 antagonist (1) 10.00 mg/kg p.o. alone, 2 hours before OVA challenge”, the overflow is 65 mL. Further, for the setting “alone, conclusion”, the “effect in this assay by itself” value is given as “no effect”. In addition, the “effect by itself on the ovalbumin-induced bronchospasm” value (up to 10 mg/kg p.o., alone) was “no effect”.

Take `Clc1ccc2c(c1)CCc1cccnc1C2=C1CCNCC1` [Desloratidine, reference compound]: under setting [1], the bronchoprotection came to 43% and the overflow was determined as 34 mL.

`CC(C)(C(=O)O)c1ccc(C(O)CCCN2CCC(C(O)(c3ccccc3)c3ccccc3)CC2)cc1` (stereo not drawn) [Fexofenadine, reference compound]: under setting [2], the bronchoprotection came out at 35% and the overflow came to 39 mL.

On to `COc1ccc(CN(CCN(C)C)c2ccccn2)cc1` [Pyrilamine, reference compound], for which, under setting [3], the bronchoprotection is 45% and the overflow was 33 mL.
